Data: patent publication US20230248847A1, “MULTIFUNCTIONAL NANOPARTICLES FOR THERAGNOSIS” (priority 2018, published 2023)

Columns and labels:
[1] = system: orthotopic xenograft tumours of MDA-MB-231 breast cancer cell line; assay: In vivo therapeutic efficacy, orthotopic MDA-MB-231 breast cancer xenograft; parameters: species or system NSG mice
Method: An orthotopic xenotransplantation of the triple-negative human MDA-MB-231 breast cancer cell line was performed in immunocompromised female NSG mice. The mice (5 per group) were divided into 3 groups and treated according to the protocol approved by the Institutional Animal Care and Use Committee (IACUC) of the University of Granada and the Regional Government of Andalusia according to the European Directive on the protection of animals used for scientific purposes (2010/63/EU) and Spanish law (Royal Decree 53/2013). […]

[2] = In vivo toxicity assays (survival, external signs, weight, motor activity); parameters: species or system NSG mice; conditions: for external side effects observed: intravenous every 3 days
Method: All the in vivo experiments were performed in NOD scid gamma mice (NSG, NOD.Cg-Prkdcscid II2rgtmlWjl/SzJ). The animal wellbeing and experimental methods were carried out according to institutional guidelines (Research Ethics Committee of University of Granada, Spain) and international guidelines (European Community Council Directive 86/609). All the animals (n=5 per group) were kept in a micro-ventilated cage system with a 12-h light/darkness cycle, and handled in a laminar flow cabinet to maintain the specific pathogen-free conditions. To establish orthotopic xenograft tumours, female mice six to eight weeks of age were used. The mice were anaesthetised by means of the inhalation of isoflurane and tumours were generated in the right breast by means of subcutaneous injections of 5×10^5 cells/mouse mixed with Corning® Matrigel® Matrix and with 26-gauge needles. The intravenous administration of PBS (control), free DOX, and NPs in the tail vein of the mice was performed every three days for a period of 43 days, as was the fluorescence evaluation by means of IVIS® (Perkin Elmer). Tumour growth was evaluated twice a week with a digital calibrator and tumour volume was calculated by means of the formula V=(length) 2×width×π/6. The weight of the mice was also measured every three days. The endpoint of the experiment was day 44. […] During that month, the fluorescence of the mice was analyzed in IVIS® once a week. Lastly, the mice were sacrificed by cervical dislocation and the tumours were extirpated, photographed, and analyzed by means of IVIS®.
In another assay, a series of experiments were carried out to control the in vivo toxicity of the treatment. […] The percentage of survival (FIG. 12) during the treatment period was 100% both for mice treated with NPs and for controls. However, treatment with DOX caused a high impact on survival. After 30 days of treatment, there was a drastic decrease in the percentage of survival (30%). This effect could be attributed to the inherent systemic toxicity of this anti-tumour drug and to the serious side effects of this conventional chemotherapy treatment.
Furthermore, in order to observe the toxic effect of the treatment at the central nervous system level, a standardised protocol for testing movement was carried out on day 30 in a cage with a camera prepared for this purpose. This camera analyzes the distance the mouse travels in 24 hours.

Question: Which “histological analysis of xenograft tumour tissues (cellularity)” value ([1]; haematoxylin/eosin and DAPI staining after treatment, vs control group) does the source give for `COc1cccc2c1C(=O)c1c(O)c3c(c(O)c1C2=O)C[C@@](O)(C(=O)CO)C[C@@H]3O[C@H]1C[C@H](N)[C@H](O)[C@H](C)O1` [doxorubicin] here?
Answer: cellularity decreased significantly

Question: What about the “therapeutic effect on tumour growth / tumour volume” value ([1]; intravenous every 3 days for 43 days, NSG mice, n=5 per group, vs PBS) of the same molecule?
Answer: significant inhibition of tumour growth

Question: What about the “time after which inhibition of tumour growth was significant” value ([1]; intravenous every 3 days, NSG mice) of the same molecule?
Answer: 3 weeks

Question: What about the “external side effects observed” value ([2]; NSG mice, listed as DOX) of the same molecule?
Answer: high cutaneous toxicity caused in the tail

Question: What about the “external side effects observed” value ([2]; NSG mice, listed as free DOX) of the same molecule?
Answer: weight loss, goose bumps, behaviour disorders, and damaged tail

Question: And the percentage of survival ([2]; after 30 days of treatment, NSG mice)?
Answer: 30%

Question: What about the “weight of mice during treatment” value ([2]; compared with untreated control mice or mice treated with theranostic NPs) of the same molecule?
Answer: significant weight reduction

Question: And the “motor activity (distance travelled in 24 hours)” value ([2]; day 30, cage with camera)?
Answer: significant decrease in mouse mobility
